Results: the NIST ThermoML archive (doi:10.1016/j.jct.2015.01.005)
Several values for one entry are separate records, joined by “and”; a condition that tells them apart may be missing. Identical values can stand only once.

Tests used:
[1] = Molar enthalpy of transition or fusion; details: DSC
[2] = molar heat capacity at constant pressure; details: 101.33 kPa, Crystal 2, Small (less than 1 g) adiabatic calorimetry
[3] = for molar entropy: 101.33 kPa, Small (less than 1 g) adiabatic calorimetry; for vapor or sublimation pressure: Calculated from knudsen effusion weight loss; for Triple point temperature: DTA

O[C@@H]1[C@@H](O)[C@@H]2OC[C@@H](O2)[C@H]1O [1,6-anhydro-β-D-glucopyranose]
Details | Molar enthalpy of transition or fusion [kcal/mol] | Triple point temperature [K] | molar heat capacity at constant pressure [J/K/mol]
[1], Crystal 1 | 0.693 | – | –
[1], Crystal 2 | 5.98 | – | –
[2], 5 K | – | – | 0.138
[2], 10 K | – | – | 1.118
[2], 15 K | – | – | 3.898
[2], 20 K | – | – | 7.99
[2], 25 K | – | – | 12.65
[2], 30 K | – | – | 17.41
[2], 35 K | – | – | 22.01
[2], 40 K | – | – | 26.36
[2], 45 K | – | – | 30.52
[2], 50 K | – | – | 34.47
[2], 60 K | – | – | 41.86
[2], 70 K | – | – | 48.71
[2], 80 K | – | – | 55.17
[2], 90 K | – | – | 61.41
[2], 100 K | – | – | 67.71
[2], 110 K | – | – | 74.28
[2], 120 K | – | – | 79.92
[2], 130 K | – | – | 85.48
[2], 140 K | – | – | 91.03
[2], 150 K | – | – | 96.6
[2], 160 K | – | – | 102.2
[2], 170 K | – | – | 107.8
[2], 180 K | – | – | 113.5
[2], 190 K | – | – | 119.2
[2], 200 K | – | – | 125
[2], 210 K | – | – | 130.9
[2], 220 K | – | – | 136.9
[2], 230 K | – | – | 143
[2], 240 K | – | – | 149.2
[2], 250 K | – | – | 155.5
[2], 260 K | – | – | 162
[2], 270 K | – | – | 168.5
[2], 280 K | – | – | 175.1
[2], 290 K | – | – | 181.7
[2], 298.15 K | – | – | 187.2
[2], 300 K | – | – | 188.5
[2], 310 K | – | – | 195.5
[2], 320 K | – | – | 202.7
[2], 330 K | – | – | 210.3
[2], 340 K | – | – | 218.6
[2], 350 K | – | – | 227.1
[2], 360 K | – | – | 235.5
[2], 370 K | – | – | 244
[2], 380 K | – | – | 252.5
[2], 384 K | – | – | 255.9
[3], Crystal 1 | – | 454 | –
[3], Crystal 2 | – | 384 | –

[3]
Details | molar entropy [J/K/mol] | vapor or sublimation pressure
5 K, Crystal 2 | 0.145 | –
10 K, Crystal 2 | 0.302 | –
15 K, Crystal 2 | 1.222 | –
20 K, Crystal 2 | 2.884 | –
25 K, Crystal 2 | 5.162 | –
30 K, Crystal 2 | 7.89 | –
35 K, Crystal 2 | 10.92 | –
40 K, Crystal 2 | 14.15 | –
45 K, Crystal 2 | 17.49 | –
50 K, Crystal 2 | 20.92 | –
60 K, Crystal 2 | 27.86 | –
70 K, Crystal 2 | 34.84 | –
80 K, Crystal 2 | 41.77 | –
90 K, Crystal 2 | 48.63 | –
100 K, Crystal 2 | 55.42 | –
110 K, Crystal 2 | 62.19 | –
120 K, Crystal 2 | 68.89 | –
130 K, Crystal 2 | 75.51 | –
140 K, Crystal 2 | 82.05 | –
150 K, Crystal 2 | 88.52 | –
160 K, Crystal 2 | 94.93 | –
170 K, Crystal 2 | 101.3 | –
180 K, Crystal 2 | 107.6 | –
190 K, Crystal 2 | 113.9 | –
200 K, Crystal 2 | 120.2 | –
210 K, Crystal 2 | 126.4 | –
220 K, Crystal 2 | 132.6 | –
230 K, Crystal 2 | 138.9 | –
240 K, Crystal 2 | 145.1 | –
250 K, Crystal 2 | 151.3 | –
260 K, Crystal 2 | 157.5 | –
270 K, Crystal 2 | 163.7 | –
280 K, Crystal 2 | 170 | –
290 K, Crystal 2 | 176.3 | –
298.15 K, Crystal 2 | 181.4 | –
300 K, Crystal 2 | 182.5 | –
310 K, Crystal 2 | 188.8 | –
320 K, Crystal 2 | 195.1 | –
330 K, Crystal 2 | 201.5 | –
340 K, Crystal 2 | 207.9 | –
350 K, Crystal 2 | 214.4 | –
353.55 K, Crystal 2 | – | 2.63e-05 kPa
353.56 K, Crystal 2 | – | 2.36e-05 kPa
358.59 K, Crystal 2 | – | 4.61e-05 kPa
360 K, Crystal 2 | 220.9 | –
363.6 K, Crystal 2 | – | 8.11e-05 kPa
368.61 K, Crystal 2 | – | 0.00014 kPa
368.62 K, Crystal 2 | – | 0.000141 kPa and 0.00014 kPa
370 K, Crystal 2 | 227.4 | –
373.63 K, Crystal 2 | – | 0.000248 kPa and 0.000254 kPa
373.64 K, Crystal 2 | – | 0.000243 kPa
378.63 K, Crystal 2 | – | 0.00041 kPa
378.64 K, Crystal 2 | – | 0.000426 kPa
378.65 K, Crystal 2 | – | 0.000416 kPa
380 K, Crystal 2 | 234.1 | –
383.65 K, Crystal 2 | – | 0.000688 kPa and 0.000723 kPa
383.66 K, Crystal 2 | – | 0.000727 kPa and 0.000742 kPa
384 K, Crystal 1 | 301.8 | –
384 K, Crystal 2 | 236.7 | –
